We go through 3 molecules from patent publication US11234960B2, “Compositions and methods for improving mitochondrial function and treating neurodegenerative diseases and cognitive disorders” (Amazentis SA, priority 2010, dated 2022).

One assay relates to normal mice. The assay can be described thus: Contextual fear conditioning (contextual memory) in normal mice. The conditions noted are these: punicalagin approx. 90 mg/kg/day 3 months; for contextual memory, freezing 24 hours after training: urolithin A approx. 55 mg/kg/day 2.5 months (FIG. 46); for memory retention, extinction of contextual memory over days 1-5: urolithin A approx. 55 mg/kg/day 2.5 months (FIG. 47). Format: in vivo. Here is the method:
Beginning at 3 months of age, mice were either fed (i) a standard control diet such as AIN-93G; (ii) a diet containing punicalagin at a concentration of […], so as to deliver an approximate dose of 90 mg/kg/day (for a period of 3 months); or (iii) a diet containing urolithin A at a concentration of […], so as to deliver an approximate dose of 55 mg/kg/day (for a period of 2.5 months). Actual doses vary slightly depending on the food consumption of each individual mouse, as well as the weight of the mouse. Behavioral assessment of cognition was measured after this period.
To examine the effect of pomegranate-derived compounds on memory and cognition, mice were examined for improvements in contextual memory utilizing the contextual fear conditioning assay. Mice were trained in a fear conditioning chamber as described in Example 19.
During training, animals were placed into the chamber one at a time. After four minutes of exploration inside the chamber, one foot shock (2 seconds and 0.4 mA) was administered, followed by a second foot shock (2 seconds and 0.4 mA) one minute later. Thirty seconds after the second foot shock, the mouse was placed back into its home cage.
One day later, trained animals were returned to the chamber for a period of three minutes. During this period mice were monitored for their movement. The amount of time spent immobile or “frozen” was scored as a percentage of the total time (3 minutes) under observation. The time spent immobile is a measure of the strength of the memory of the mice to recall the context in which they were trained.
To determine the effect of these pomegranate-derived compounds on memory retention, normal mice fed either (i) a control diet; (ii) punicalagin (for a period of 3 months) or (iii) urolithin A (for a period of 2.5 months) were studied for their memory recall on days 1, 2, 3, 4 and 5 after the initial contextual fear training.
Animals were placed in the same chamber and context for 3 min daily (same time of day, however no shock this time) for the 5 days that followed the initial testing. Freezing behavior induced by the simple contextual recognition by the animals of the chamber, where they received the initial shock, was measured during each of these daily 3-minute periods. The ability to recognize this environment in the absence of the stimulus is a measurement of contextual memory.

A further assay deals with HFD-fed C57BL6/J mice. The assay can be described thus: Plasma biochemistry in HFD-fed mice. The conditions noted are these: HFD-fed mice treated for 14 weeks; for plasma levels of triglycerides: fasted 12 h (FIG. 23A); for plasma levels of free fatty acids: fasted 12 h (FIG. 23B). Format: in vivo.
For assay [1], the system named is high fat diet (HFD)-fed C57BL6/J mice. The assay can be described thus: Body weight and body composition (EchoMRI) in high-fat diet fed mice. Type of assay: in vivo. The conditions noted are these: for body weight gain: HFD-fed mice vs control HFD-fed mice, PE 140 mkd polyphenols gavage (FIG. 17A); for body weight gain / percentage fat mass (EchoMRI): urolithin A 55 mkd food admix, punicalagin 90 mkd gavage; for percentage of lean mass (EchoMRI) / percentage fat mass (EchoMRI): HFD-fed mice; for percentage of lean mass (EchoMRI): 5 weeks of treatment (FIG. 17C); for percentage fat mass (EchoMRI): 5 weeks of treatment, PE 140 mkd gavage (FIG. 17B).

The subject of another assay is PC-12 cells. The assay can be described thus: Neurite outgrowth in NGF-differentiated PC-12 cells. Type of assay: cell-based, rat. The conditions noted are these: 0.5 μM; for percent of cells showing significant outgrowth (>20 μm), increase vs differentiated cells: 72 h (FIG. 8); for number of processes, increase: 72 h, differentiated PC-12 cells (FIG. 9). The protocol:
The ellagitannins and their metabolites tested in the assays were synthesized or purchased from suppliers which included Funakoshi, Sigma, and Chemos. Stock solutions were aliquoted and stored at −20° C.
PC-12 cells (ATCC CRL-1721) were cultured at 37° C., 5% CO2 in poly L-lysine-coated culture flasks in complete culture medium (RPMI 1640+10% heat-inactivated horse serum+5% fetal bovine serum).
Cell differentiation was performed in culture flasks 24 h after plating, in complete medium supplemented with 100 ng/mL NGF (2.5 S NGF, Invitrogen). The NGF-supplemented medium was renewed every third day, and differentiation was induced over an 8-day period.
All compounds to be tested were prepared just before the experiment as a 50 mM stock solution in dimethylsulfoxide (DMSO). The final DMSO concentration was 0.1% in the medium of all experimental groups.
For neurite outgrowth measurements, differentiated cells were washed with phosphate-buffered saline (PBS), collected after detachment and replated at a density of 5,000 cells/well (biocoat imaging 96 well plate) in complete medium supplemented with 100 ng/mL NGF, with or without 10 μM SP600125 (negative control), 1 mM dbcAMP (positive control), or tested compound at 5×10^−7 M. In the undifferentiated control group, no NGF was added after replating.
After 72 h in culture, PC-12 cells were washed with PBS and fixed in 1% paraformaldehyde solution for 20 minutes. After 3 washes with PBS, immunofluorescence labeling was performed with Texas Red Maleimide probe, which reacts with thiol groups of cysteine residues of proteins, permitting the visualization of the entire cell morphology, including neurites.
Immunofluorescence analysis was performed in automated confocal microscopy. Images were acquired with a BD pathway 855 system, under X20 objective with 8×8 field montage. Neurite outgrowth was then measured from acquired images with the neurite module of Metamorph® software. Total and mean outgrowth, total and mean number of processes per cell, and total and percentage of cells with extensive outgrowth (defined as outgrowth longer than 20 μm) were analyzed.

The test system of assay [2] is C57BL6/J mice fed standard chow diet. The assay can be described thus: Body composition (EchoMRI) in standard chow diet fed mice. Type of assay: in vivo. The conditions noted are these: 2 weeks of treatment, ellagic acid 75 mkd; for percentage of lean mass (EchoMRI): urolithin A 55 mkd food admix (FIG. 18A); for percentage of fat mass (EchoMRI): urolithin A 55 mkd food admix (FIG. 18B). An excerpt:
Male C57BL6/J mice were purchased from Charles River Laboratory (L'Arbresle, France) at the age of 7 weeks and acclimatized to the animal facility for 2 weeks before initiation of experiments. Mice were housed in groups of 5 in standard housing conditions, with a 12 hr light-dark cycle and free access to food and water. Beginning at 9 weeks of age, mice were fed a high-fat diet (HFD) (60% kcal from fat; D12492; Research Diets Inc., New Brunswick, N.J., USA) for fourteen weeks. Body weight was monitored weekly.
Mice in different treatment groups were administered (i) urolithin A mixed with food (food admix) to reach a dosing of 55 mg/kg body weight/day (mkd); (ii) ellagic acid mixed with food (food admix) to reach a dosing of 75 mkd; (iii) punicalagin (gavage) to reach a dosing of 90 mkd; or (iv) pomegranate extract (PE) (gavage) to reach a dosing of 140 mkd of total polyphenols. A typical pomegranate extract used in these experiments had the following composition: polyphenols, 140 mkd; punicalagin, 13.1 mkd; and ellagic acid, 13.2 mkd. For animals treated by gavage, gavage was performed daily (7 days/week) between 8:00 and 10:00 a.m.; compounds were mixed with saline solution (0.9% NaCl) and provided at a final volume of 5 mL/kg of body weight. Mice in high-fat control groups were fed with the same diet as the experimental animals. Mice in corresponding different control groups were administered either high-fat diet alone or high-fat diet plus daily gavage with vehicle (saline). Another control group of mice were fed standard chow diet alone.
Body composition was monitored by EchoMRI (Echo Medical Systems, Houston, Tex., USA) 5 weeks after the initiation of the treatment for high-fat diet fed mice and 2 weeks after the initiation of the treatment for chow diet fed mice. Animals were placed individually into a plastic cylinder and then introduced into an EchoMRI system for about 2 min for body composition scanning (lean and fat mass).

Structures are written as SMILES.

Protocol for HFD-fed C57BL6/J mice: In addition, plasma biochemistry was performed 14 weeks after the initiation of the treatment using a standard automated clinical chemistry analyzer (Dimension Xpand, SIEMENS). Animals were fasted for 12 h (from 8 pm to 8 am) before blood collection. Approximately 500 μL of blood was collected from vena cava in anesthetized animals under isofluorane anesthesia. Blood was collected in heparinized tubes and immediately placed on wet ice. Plasma was prepared by centrifugation (1500×g, 15 min, 4° C.). Plasma samples were then transferred in clean 1.5 mL microtubes and stored at −80° C. until biochemical measurements were performed on a standard automated clinical chemistry analyzer (Dimension Xpand, SIEMENS) using corresponding kits.

For `O=C1O[C@H]2[C@@H]3OC(=O)c4cc(O)c(O)c(O)c4-c4c(O)c(O)c5oc(=O)c6c(c(O)c(O)c7oc(=O)c4c5c76)-c4c(cc(O)c(O)c4O)C(=O)OC[C@H]3OC(O)[C@@H]2OC(=O)c2cc(O)c(O)c(O)c2-c2c1cc(O)c(O)c2O` (mixture of isomers) [punicalagin, 2,3 hexahydroxydiphenoyl-4,6-gallagylglucose], in the assay on normal mice, the “contextual memory, freezing 24 hours after training” value was “significant improvements in contextual memory” and the “memory retention, extinction of contextual memory over days 1-5” value was “improved memory retention”. In addition, in the assay with HFD-fed C57BL6/J mice, the “plasma levels of triglycerides” value is given as “statistically significant improvement” and the “plasma levels of free fatty acids” value is reported as “statistically significant improvement”. In assay [1], the body weight gain result is recorded as “strong reduction of body weight gain”, the “percentage of lean mass (EchoMRI)” value was “statistically significant increase in the percentage of lean mass” and the “percentage fat mass (EchoMRI)” value is “significantly reduced”. Besides, in the assay with PC-12 cells, the “percent of cells showing significant outgrowth (>20 μm), increase vs differentiated cells” value is listed as > 26% and the “number of processes, increase” value is recorded as 26.3%.
Regarding `O=c1oc2c(O)c(O)cc3c(=O)oc4c(O)c(O)cc1c4c23` [ellagic acid], in assay [2], the “percentage of lean mass (EchoMRI)” value is “statistically significant increase in the percentage of lean mass” and the “percentage of fat mass (EchoMRI)” value is “reduction in fat mass”.
In the case of `O=c1oc2cc(O)ccc2c2ccc(O)cc12` [urolithin A, 3,8-Dihydroxydibenzo-α-pyrone], in the assay with normal mice, the “contextual memory, freezing 24 hours after training” value was “significant improvements in contextual memory” and the “memory retention, extinction of contextual memory over days 1-5” value is “improved memory retention”. In addition, in assay [2], the “percentage of lean mass (EchoMRI)” value was “statistically significant increase in the percentage of lean mass” and the “percentage of fat mass (EchoMRI)” value is “reduction in fat mass”. Besides, in the assay with HFD-fed C57BL6/J mice, the “plasma levels of triglycerides” value was “statistically significant improvement” and the “plasma levels of free fatty acids” value was “statistically significant improvement”. For the same molecule, in assay [1], the body weight gain result is given as “strong reduction of body weight gain”, the “percentage of lean mass (EchoMRI)” value is “statistically significant increase in the percentage of lean mass” and the “percentage fat mass (EchoMRI)” value is recorded as “significantly reduced”. Also, in the assay with PC-12 cells, the “percent of cells showing significant outgrowth (>20 μm), increase vs differentiated cells” value was found to be 26% and the “number of processes, increase” value is on record as 15.7%.
